{"source": "patent US6432961B1", "about": "“Method for preventing the onset of asthma” (UCB S.A., priority 1998, dated 2002)", "key": {"[1]": {"test_system": "infants with atopic dermatitis", "test": "Adverse events recorded during the 18 month study", "format": "in vivo", "procedure": "At each of the nine visits, the atopy status, any concurrent illnesses, concomitant medications and procedures were recorded. Patients underwent a physical examination, including the measurement of vital signs.\nAdverse events were recorded by the parents on diary cards and discussed with the investigator at each visit. Serious adverse events had to be reported immediately.\n(§1) Oral solutions of cetirizine dihydrochloride (10 mg/ml) and matching placebo, similar in appearance and taste were used. The recommended study dosage was 0.25 mg cetirizine/kg b.i.d. (b.i.d.=“bis in die”, 2 times a day)."}, "[2]": {"test_system": "onset of asthma in young children with atopic dermatitis", "test": "18 month double blind, placebo-controlled study of cetirizine dihydrochloride for preventing the onset of asthma", "format": "in vivo, infants", "details": "for RR for developing asthma when cetirizine treated: versus placebo", "from_the_text": "The aim of the study relative to the clinical effect of cetirizine dihydrochloride was to establish on the intention to treat (ITT population) whether an 18 month cetirizine dihydrochloride treatment can prevent the onset of asthma in young children with atopic dermatitis, when compared to placebo. Subgroups based on the baseline status of biological markers as well as specific asthmatic patients (i.e. wheezers only; asthma onset date at least 3 months after inclusion) were foreseen as well. It was considered that a 30% reduction of the incidence of asthma is clinically relevant. Secondary parameters of efficacy included the severity of asthma and atopic dermatitis.\nAll the infants had to have at least one parent or sibling with a history of atopic disease (atopic dermatitis, allergic rhinitis or asthma). Excluded were infants with asthma, or with a history of any episodes of wheezing or nocturnal cough as well as any condition likely to obscure the diagnosis of asthma (Guidelines for the diagnosis and management of asthma. National Asthma Education and Prevention Program. Expert Panel Report II. National Institute of Health publication 97-4051; International Report. International consensus report on diagnosis and treatment of asthma. National Heart, Lung and Blood Institute. National Institute of Health publication 92-3091).\nThe study was a prospective, randomized, double blind, parallel group, and placebo-controlled study with cetirizine dihydrochloride.\nStudy treatment lasted for 18 months. After the treatment period, patients entered a long-term follow-up period.\nThe primary end-point for efficacy was the onset of asthma, defined as 3 episodes of nocturnal cough with sleep disturbances or wheezing, separated by at least 7 days, in a clinical setting where asthma is likely and conditions other than allergy have been excluded.\nSerum total and specific (grass pollen, cow's milk, egg, house dust mites and cat dander) IgE antibody levels were determined using the Pharmacia CAP® system (Pharmacia & Upjohn, Uppsala, Sweden). These analyses were made at baseline, and after 3, 12 and 18 months of treatment by a central laboratory (Institut Pasteur—Lille, France) according to instructions of the manufacturer and routine clinical laboratory performances.\nas §1\nSample size was based on an expected cumulative incidence of asthma in 40% of children in the placebo group after 18 months of treatment. A decrease of 30% of the incidence was considered as clinically relevant."}, "[3]": {"details": "subgroup with elevated Eosinophil count at baseline"}}}
{"compound": "O=C(O)COCCN1CCN(C(c2ccccc2)c2ccc(Cl)cc2)CC1", "note": "(centres unmarked) [Cetirizine]", "values": [{"measurement": "safety in infants", "setting": "[1]; 18 month treatment, large trial in infants", "value": "safe product"}, {"measurement": "urticaria (adverse event frequency)", "setting": "[1]; cetirizine group versus 16.1% placebo, p<0.001", "value": 5.8, "unit": "%"}, {"measurement": "adverse event (AE) profiles between groups", "setting": "[1]; cetirizine versus placebo, except for urticaria", "value": "no significant differences"}, {"measurement": "Occurrence of Asthma by Treatment", "setting": "[2]; ITT population, 18 months, 0.25 mg/kg b.i.d. oral", "value": "(37.7) %"}, {"measurement": "number of children developing asthma", "setting": "[2]; early treatment initiated between 1 and 2 years of age, atopic dermatitis, sensitized (specific IgE ≧0.35 kUA/l) to grass pollen or house dust mite", "value": "halved"}, {"measurement": "prevention of asthma", "setting": "[2]; infants with atopic dermatitis and evidence of sensitivity to grass pollen or house dust mite", "value": "successfully prevents asthma"}, {"measurement": "risk of developing asthma compared with placebo", "setting": "[2]; infants with raised baseline total IgE (≧30 kU/l) or specific IgE antibodies (≧0.35 kUA/l)", "value": "reduced risk of developing asthma"}, {"measurement": "Occurrence of Asthma by Treatment", "setting": "[2]; [3]", "value": "(42.7) %"}, {"measurement": "Occurrence of Asthma by Treatment", "setting": "[2]; subgroup with elevated IgE Cat dander (E1) at baseline (≧0.35 kUA/l)", "value": "(40.6) %"}, {"measurement": "Occurrence of Asthma by Treatment", "setting": "[2]; subgroup with elevated IgE Egg (F1) at baseline (≧0.35 kUA/l)", "value": "(31.2) %"}, {"measurement": "Occurrence of Asthma by Treatment", "setting": "[2]; subgroup with elevated IgE Grass pollen (GX1) at baseline (≧0.35 kUA/l)", "value": "(27.8) %"}, {"measurement": "Occurrence of Asthma by Treatment", "setting": "[2]; subgroup with elevated IgE HDM (D1) at baseline (≧0.35 kUA/l)", "value": "(28.6) %"}, {"measurement": "Occurrence of Asthma by Treatment", "setting": "[2]; subgroup with elevated IgE HDM + Grass pollen at baseline (≧0.35 kUA/l)", "value": "(34.2) %"}, {"measurement": "Occurrence of Asthma by Treatment", "setting": "[2]; subgroup with elevated IgE Milk (F2) at baseline (≧0.35 kUA/l)", "value": "(30.7) %"}, {"measurement": "Occurrence of Asthma by Treatment", "setting": "[2]; subgroup with elevated Total IgE (PRIST) at baseline (≧30 kU/l)", "value": "(38.1) %"}, {"measurement": "RR for developing asthma when cetirizine treated", "setting": "[2]; [3]", "value": 0.9}, {"measurement": "RR for developing asthma when cetirizine treated", "setting": "[2]; subgroup with elevated IgE Cat dander (E1) at baseline", "value": 0.9}, {"measurement": "RR for developing asthma when cetirizine treated", "setting": "[2]; subgroup with elevated IgE Egg (F1) at baseline", "value": 0.8}, {"measurement": "RR for developing asthma when cetirizine treated", "setting": "[2]; subgroup with elevated IgE Grass pollen (GX1) at baseline", "value": 0.5}, {"measurement": "RR for developing asthma when cetirizine treated", "setting": "[2]; subgroup with elevated IgE HDM (D1) at baseline", "value": 0.6}, {"measurement": "RR for developing asthma when cetirizine treated", "setting": "[2]; subgroup with elevated IgE HDM + Grass pollen at baseline", "value": 0.6}, {"measurement": "RR for developing asthma when cetirizine treated", "setting": "[2]; subgroup with elevated IgE Milk (F2) at baseline", "value": 0.7}, {"measurement": "RR for developing asthma when cetirizine treated", "setting": "[2]; subgroup with elevated Total IgE (PRIST) at baseline", "value": 0.9}]}
